Data from patent US7282518B2, “Benzimidazole compounds for modulating IgE and inhibiting cellular proliferation” (Avanir Pharmaceuticals, priority 2001, dated 2007).

How the values were obtained:
[1] = system: cytokine release; test: ConA-stimulated cytokine release; type: cell-based
[2] = system: EGF-responsive cell lines; test: Proliferation of EGF-responsive (ER-negative/EGFR-positive) breast cancer cell lines; type: cell-based; conditions: in vitro
Protocol: (§1) A variety of experiments were performed in an effort to determine the effect of the benzimidazole compounds on cellular proliferation. These experiments ultimately measured ^3H-thymidine incorporation into proliferating cell DNA. The specific procedure varied with the cells and the stimuli. Cells derived from mouse spleen were cultured at 3 million per ml; cell lines were seeded at 0.1 to 1 million per ml. Splenic B cells were isolated by T cell depletion and stimulated with phorbol myristate acetate (PMA) (10 ng/ml) plus ionomycin (100 nM), or IL-4 (10 ng/ml) plus anti-CD40 Ab (100 ng/ml). T cells were depleted prior to culture by incubating spleen cells first with a cocktail of anti-Thyl ascites (10%), anti-CD4 Ab (0.5 μg/ml) and anti-CD8 Ab (0.5 μg/ml), followed by guinea pig complement (adsorbed). Cell lines were unstimulated or stimulated with Human Epidermal Growth Factor (EGF) (100 ng/ml). All cells were cultured in 96-well plates for 2–3 days and pulsed for 6 to 14 hours with 50 μl of 3H-thymidine (50 μCi/ml). A similar approach was used to establish selectivity of the anti-proliferative activity by testing a battery of tumor lines derived from a variety of tissues, mostly human in origin. An attempt was made to generate proliferation data from at least 2 cell lines from each tissue selected. […]

[3] = system: Splenic B cells; test: Spleen cell / splenic B cell proliferation, 3H-thymidine incorporation; type: cell-based, mouse
Protocol: (§2) Spleen cell cultures were established from naive BALB/c mice and incubated for 4 days in the presence of stimulus and drug. Cultures were pulsed for 4 hours with 3H-thymidine and harvested. A variety of experiments were performed in an effort to determine the effect of the benzimidazole compounds on cellular proliferation. These experiments ultimately measured ^3H-thymidine incorporation into proliferating cell DNA. The specific procedure varied with the cells and the stimuli. Cells derived from mouse spleen were cultured at 3 million per ml; cell lines were seeded at 0.1 to 1 million per ml. Splenic B cells were isolated by T cell depletion and stimulated with phorbol myristate acetate (PMA) (10 ng/ml) plus ionomycin (100 nM), or IL-4 (10 ng/ml) plus anti-CD40 Ab (100 ng/ml). T cells were depleted prior to culture by incubating spleen cells first with a cocktail of anti-Thyl ascites (10%), anti-CD4 Ab (0.5 μg/ml) and anti-CD8 Ab (0.5 μg/ml), followed by guinea pig complement (adsorbed). Cell lines were unstimulated or stimulated with Human Epidermal Growth Factor (EGF) (100 ng/ml). All cells were cultured in 96-well plates for 2–3 days and pulsed for 6 to 14 hours with 50 μl of 3H-thymidine (50 μCi/ml).

[4] = system: murine M12.4.1 lymphoma cells; test: M12.4.1 lymphoma cell proliferation, 3H-thymidine incorporation; type: cell-based
Protocol: as §2, with “A” for “Spleen cell cultures were established from naive BALB/c mice and incubated for 4 days in the presence of stimulus and drug. Cultures were pulsed for 4 hours with 3H-thymidine and harvested. A”, “μCi/ml). In tumor cells, the results with splenic lymphocytes led to a further analysis of cellular proliferation by measuring the growth of tumor cells in the presence of these drugs. The initial analysis was performed with murine M12.4.1 lymphoma cells, either un-stimulated or stimulated with IL-4/anti-CD40 Ab. […]” for “μCi/ml).”

[5] = system: ER-positive cell lines; test: Proliferation of ER-positive breast cancer cell lines; type: cell-based; conditions: in vitro
Protocol: as §1

[6] = system: tumor lines derived from a variety of tissues; test: Proliferation of a battery of tumor lines from a variety of tissues; type: cell-based, mostly human; conditions: in vitro
Protocol: as §1

[7] = system: IgE responses; test: In vitro IgE responses to IL-4/anti-CD40 Ab; type: cell-based

SMILES: O=C(Nc1ccccn1)c1ccc2[nH]c(-c3ccc(NC(=O)C45C[C@H]6C[C@@H](C4)C[C@@H](C5)C6)cc3)nc2c1 [Compound I.82]
- ConA-stimulated cytokine release [1]: inhibition
- proliferation of all EGF-responsive cell lines [2]: potently inhibited
- anti-proliferative activity to T and B lymphocytes exposed to a variety of immunogenic stimuli ([3]; in vitro): highly potent
- spleen cell proliferation responses (FIG. 1) ([3]; naive BALB/c mice, 4 days with stimulus and drug, 4 hours 3H-thymidine pulse): suppression of spleen cell proliferation responses
- B cell proliferation response to IL-4/anti-CD40 Ab ([3]; spleen cells, IL-4 (10 ng/ml) plus anti-CD40 Ab (100 ng/ml)): suppressed
- B cell proliferation response to PMA/ionomycin ([3]; spleen cells, PMA (10 ng/ml) plus ionomycin (100 nM)): suppressed
- proliferation of M12.4.1 cells, potency ([4]; cultured with IL-4/anti-CD40 Ab): increased
- proliferation of M12.4.1 cells ([4]; un-stimulated): suppressed the proliferation of M12.4.1 cells but with lower potency
- number of ER-positive cell lines potently inhibited [5]: 2 of the 5
- sensitivity of tumor cell lines (proliferation) [6]: a number of tumor cell lines are sensitive
- in vitro IgE responses to IL-4/anti-CD40 Ab [7]: suppressed in vitro IgE responses
